# In publication PMC12580772, “A First-in-Human Study of ATM Inhibitor Lartesertib as Monotherapy in Patients with Advanced Solid Tumors” (Clinical Cancer Research, 2025):
# Key:
# [1] = test system: advanced solid tumors; experiment: Efficacy: tumor response and PFS by RECIST version 1.1; assay type: in vivo, human
# From the text: The primary endpoints were the occurrence of DLTs, adverse events (AE), and treatment-related and treatment-emergent AEs (TEAE), along with the occurrence of clinically significant changes in vital signs, laboratory parameters, and 12-lead electrocardiogram findings. The secondary endpoints included PK parameters of lartesertib in plasma after single and multiple doses; establishment of the recommended dose for expansion based on safety, PK, and PD data; absolute and relative changes overtime from baseline in ATM pathway readouts assessed by flow cytometry and immunohistochemistry; and objective response, duration of response, and progression-free survival (PFS) according to the RECIST version 1.1, as assessed by the investigator. Exploratory endpoints included the correlation of baseline and on-treatment biomarkers with response to lartesertib treatment as well as relative changes in total blood cell count, immune cells, and circulatory factors during exposure to lartesertib.
# For the efficacy analysis, the proportion of patients with objective response, defined as radiologic complete response (CR) + partial response, was tabulated, and the 95% confidence interval (CI) was estimated using the Clopper–Pearson method. PFS was estimated using the Kaplan–Meier method. The median PFS time and rate estimates at 3, 6, and 12 months, as well as every 6 months thereafter, were also summarized.
# [2] = test system: γ-H2AX; experiment: PD analysis: γ-H2AX in CD45+ lymphocytes after ex vivo bleomycin stimulation, flow cytometry; design: species or system human; conditions: 2, 4, 6 hours on Day 1, sustained Day 2 at 2 to 4 hours, all four DLs
# Experimental: The PD analyses in blood were conducted using samples collected during Cycle 1 at the following time points: Day 1, pre-dose, and post-dose at 2, 4, and 6 hours; Day 2 at pre-dose and post-dose at 2 to 4 hours; and Day 22 at pre-dose and post-dose at 2 and 4 hours. These samples were analyzed to assess levels of the PD biomarker, γ-H2AX, a phosphorylated histone variant known to represent an early and sensitive marker of DSB response ([18]). Each sample was stimulated ex vivo with bleomycin, a DNA DSB inducer that activates ATM function, or with phosphate-buffered saline as a negative control. γ-H2AX was subsequently measured in the CD45^+ lymphocyte fraction by flow cytometry.
smiles,measurement,setting,value
COc1cc2ncc3c(c2cc1-c1cn(C)nc1C)n(-c1c(F)cncc1OC)c(=O)n3C [lartesertib],Best overall response: Non-complete response/non-progressive disease,[1]; 100 mg n = 2,1 (50.0) n (%)
same,Best overall response: Not evaluable,[1]; 100 mg n = 2,1 (50.0) n (%)
same,Best overall response: Progressive disease,[1]; 100 mg n = 2,0 (0.0) n (%)
same,Best overall response: Stable disease,[1]; 100 mg n = 2,0 (0.0) n (%)
same,Progressive disease/Deaths (PFS events),[1]; 100 mg n = 2,0 (0.0) n (%)
same,"PFS, median (min, max)","[1]; 100 mg n = 2, NC, noncalculable","NC (1.2,4.0)"
same,Best overall response: Non-complete response/non-progressive disease,[1]; 200 mg n = 7,0 (0.0) n (%)
same,Best overall response: Not evaluable,[1]; 200 mg n = 7,2 (28.6) n (%)
same,Best overall response: Progressive disease,[1]; 200 mg n = 7,5 (71.4) n (%)
same,Best overall response: Stable disease,[1]; 200 mg n = 7,0 (0.0) n (%)
same,"PFS, median (min, max)",[1]; 200 mg n = 7,"1.1 (0.0, 1.6) months"
same,Progressive disease/Deaths (PFS events),[1]; 200 mg n = 7,6 (85.7) n (%)
same,Best overall response: Non-complete response/non-progressive disease,[1]; 300 mg n = 9,0 (0.0) n (%)
same,Best overall response: Not evaluable,[1]; 300 mg n = 9,2 (22.2) n (%)
same,Best overall response: Progressive disease,[1]; 300 mg n = 9,6 (66.7) n (%)
same,Best overall response: Stable disease,[1]; 300 mg n = 9,1 (11.1) n (%)
same,"PFS, median (min, max)",[1]; 300 mg n = 9,"1.3 (0.0, 4.1) months"
same,Progressive disease/Deaths (PFS events),[1]; 300 mg n = 9,7 (77.8) n (%)
same,Best overall response: Non-complete response/non-progressive disease,[1]; 400 mg n = 4,0 (0.0) n (%)
same,Best overall response: Not evaluable,[1]; 400 mg n = 4,2 (50.0) n (%)
same,Best overall response: Progressive disease,[1]; 400 mg n = 4,1 (25.0) n (%)
same,Progressive disease/Deaths (PFS events),[1]; 400 mg n = 4,1 (25.0) n (%)
same,"PFS, median (min, max)","[1]; 400 mg n = 4, NC, noncalculable","NC (0.0, 2.8)"
same,Best overall response: Non-complete response/non-progressive disease,[1]; Total N = 22,1 (4.5) n (%)
same,Best overall response: Not evaluable,[1]; Total N = 22,7 (31.8) n (%)
same,Best overall response: Progressive disease,[1]; Total N = 22,12 (54.5) n (%)
same,Best overall response: Stable disease,[1]; Total N = 22,2 (9.1) n (%)
same,"PFS, median (min, max)",[1]; Total N = 22,"1.3 (0.0, 4.1) months"
same,Progressive disease/Deaths (PFS events),[1]; Total N = 22,14 (63.6) n (%)
same,Median PFS,"[1]; all patients, Kaplan–Meier","1.3 (95% CI, 0.99–1.58) months"
same,Best overall response stable disease,[1]; of 22 patients,9.1%
same,Progressive disease,[1]; of 22 patients,54.5%
same,Non-CR/non–progressive disease,"[1]; of 22 patients, prostate gland cancer",4.5%
same,Duration of stable disease,[1]; patient with nasopharyngeal cancer,120 days
same,γ-H2AX target inhibition over time,[2],trend of increasing lartesertib target inhibition
